From US9381169B2, “Pharmaceutical composition and use of the pharmaceutical composition for the treatment, prophylaxis or prevention of neoplastic diseases in humans and animals” (UNIVERSIDADE BANDEIRANTE DE SÃO PAULO—ACADEMIA PAULISTA …, priority 2009, dated 2016)
Read-outs that look alike come from different tables or passages of the source.

What was measured:
[1] = system: polychromatic erythrocytes; details: Wistar rats; for Observed frequencies of polychromatic erythrocytes with micronuclei in 1000 polychromatic erythrocytes: single intraperitoneal dose, cyclophosphamide 190 μM/Kg, DM-1 8 hours before cyclophosphamide
Text: We used animals of the Wistar strain, males and females, with approximately 90 days old and weighing between 250 and 300 grams, maintained with water and food “ad libitum” and in accordance with the rules and procedures regarding the use of laboratory animals. The animals were divided into four groups:
Negative control group—6 animals treated with a single dose of 0.7% saline solution.
Group treated with cyclophosphamide (positive control)—6 animals treated with a single dose of cyclophosphamide chemotherapy.
In all tests was administered 1 mL of the compound of interest intraperitoneally. […] Cyclophosphamide was administered at a concentration of 190 μM/Kg. The compounds were administered separately. At the end of the experiment (24 and 48 hours), animals were euthanized by deep general anesthesia induced by a lethal dose of sodium tiopentabarbital (CRMV, 2008).
This study allowed us to analyze the action of mutagenic compounds under study. Mutagenic compounds when administered in experimental animals cause changes in chromatin that can be identified by the formation of a mass within the nucleus called the micronucleus. The emergence of this mass is quantified and analyzed for their proportion to the capacity of a given drug or not to be mutagenic.
For micronucleus study we used the technique reported by Ribeiro et al. (Environmental Mutagenesis. Ulbra Publisher. Canoas: 1st edition, 2003.) For the staining of slides was used the technique described by Rabello-Gay et al. Apud SILVA, J. C. of; SILVA, S. of C. Evaluation of possible genotoxic effects of Gergilim (Sesamum indicum L., 2003).
In the test, the effect of the chemical agent is observed in anucleate polychromatic erythrocytes (ECPs), which have relatively short life span, so that it contains any micronucleus that was generated as a result of recent chromosomal damage. For the staining of slides was used Giemsa stain diluted in phosphate buffer at pH 6.8, in the ratio 1:10, for a period of 15 minutes. After staining, the slides were washed in distilled water to remove excess dye. To read the slides used an optical microscope and perform counting and analysis of 1000 polychromatic erythrocytes per slide, considering the frequency of micronucleated polychromatic erythrocytes.
The analysis was performed with cells increases 40× and 100× for the visualization of general morphology of the smears negative control group (FIG. 22), the groups treated with the compound DM1 and their polychromatic erythrocytes (FIGS. 23, 24 and 25). 1000 cells were analyzed per animal for the groups treated with DM1, negative control and cyclophosphamide for a total of 40,000 cells. The photodocumentation polychromatic erythrocytes was obtained by digital AVsoft. The group treated with cyclophosphamide was the positive control of the technique (FIG. 27).
The results were subjected to statistical analysis, the ANOVA test of variance followed by Tukey-Kramer multiple comparisons (parametric data) and the significance level of 5%, i.e., the probability P<0.05).

[2] = Hematologic evaluation (erythrocytes, leukocytes, platelets), B16F10 melanoma; type: in vivo, mice; details: for platelet counts during treatment compared to the control group: B16F10 melanoma mice
Procedure: (§1) The compounds were administered separately.
The blood of animals with B16F10 melanoma tumor was harvested in the 6th and 14th day during treatment with the compound DM-1 and prior to the inoculation of B16F10 cells. In the charts, collections for the day 6 were named 1A, while those relating to day 14 were named 2A. After implantation, tumor blood were collected in the second, sixth and tenth days of treatment (after treatment with DM-1) in all groups of animals, and these collections were named 1B and 2B and 3B, respectively.

B16F10 melanoma [3] = assay: Internal metastases, B16F10 melanoma; type: in vivo, mice
Procedure: (§2) Groups of mice of the C57Bl/6J strain were injected subcutaneously dorsally with 5×10^4 B16F10 melanoma tumor cells under sterile conditions. The animals were observed every 72 hours and tumor growth monitored until the average diameter of […].
(§3) Paclitaxel-treated group—10 animals with B16F10 melanoma tumor, which after the 11th day of tumor implantation, received intraperitoneal doses of paclitaxel chemotherapy in […] of treatment;
(§4) Group pre-treated with the DM-1 compound prior to the implant of B16F10 melanoma cells—10 animals were treated with daily doses of the compound DM-1 for 14 days before implantation of tumor cells. After 14 days, the animals received implantation of B16F10 melanoma cells and received no treatment until the end of the experiment.
as §4, with “cells and post-treated with DM-1 compound—10” for “cells—10”, “continued to receive daily” for “received no”, “with” for “until”, “compound DM-1 for another 14 days.” for “end of the experiment.”
as §1

B16F10 melanoma [4] = assay: Survival rate, B16F10 melanoma; type: in vivo, mice
Procedure: as §2, §3
(§5) After 14 days, the animals received implantation of B16F10 melanoma cells and received no treatment until the end of the experiment.
(§6) Paclitaxel was administered at a concentration of 15 μM/Kg, via intraperitoneal slow infusion, the treatment regimens described in the literature on days 1, 5 and 10, after the 7th day of tumor implantation. The compounds were administered separately.

B16F10 melanoma [5] = assay: Tumor growth (dorsal tumor area), B16F10 melanoma; type: in vivo; details: C57Bl/6J mice
Procedure: as §2
Control group—10 animals with B16F10 melanoma tumor, which after the 11th day of tumor implantation, received daily intraperitoneal doses of saline 0.9%;
as §3, §5, §6

tumor cell lines = details: PCT/BR2007/000175 and PI0602640-0; cited from earlier work
B16F10 melanoma cells = assay: Cell cycle phases and apoptosis of dorsal tumor cells (propidium iodide, FACSCalibur); type: in vivo, mice
Procedure: The cells were then frozen and kept in liquid nitrogen. After incubation with propidium iodide, the analysis was performed on a FACSCalibur cytometer. The results were expressed as mean percentage of cells in different phases of the cell cycle, debris and necrosis, apoptosis (sub-G1), quiescent non-proliferating cells G0/G1, S phase—synthesis of genetic material and G2/M at the beginning of cell division.

Ehrlich tumor [6] = assay: Macroscopic spleen volume, Ehrlich tumor; details: all experimental protocols with DM-1
Procedure: (§7) We used 50 mice of the Balb-c strain, females and males, with approximately 25 g, aged approximately 6 to 8 weeks, with diet and water ad libitum, that were divided into 5 groups:
The spleens of animals from all experimental groups were analyzed for the display of nodes and metastases.

[7] = cited from earlier work
Ehrlich tumor [8] = assay: Number of renal and splenic metastases, Ehrlich tumor; type: in vivo; details: Balb-c mice
Procedure: As an experimental model of mammary adenocarcinoma, we used the Ehrlich tumor in mice of the Balb-c strain, with approximately 2 months of age and weighing between 20 to 25 grams. The maintenance of the tumor in vivo was performed by intraperitoneal administration of 10^7 cells every seven days.
Paclitaxel and etoposide were administered at concentrations of 15 μM/Kg and 3.73 mM/kg, respectively, by intraperitoneal slow infusion in treatment regimens described in the literature on days 1, 5 and 10, after the 7th day of tumor implantation. The compounds were administered separately.

Ehrlich tumor [9] = details: Balb-c mice, intraperitoneal from day 7 after implant, DM-1 1.6 nM/kg daily, paclitaxel 15 μM/Kg, etoposide 3.73 mM/kg on days 1, 5, 10
Text: as §7
CONTROL GROUP—10 animals implanted with tumor, which after 7 days of application, received daily intraperitoneal doses of saline 0.9%;
Paclitaxel-treated group—10 animals implanted with tumor, which after 7 days of application, received intraperitoneal doses of paclitaxel chemotherapy in the 1st, 5th and 10th days of treatment;
Etoposide-treated group—10 animals implanted with tumor, which after 7 days of application, received intraperitoneal doses of etoposide chemotherapy in the 1st, 5th and 10th days of treatment; […]
Tumor growth in mice was measured by the dimensions on the longitudinal and transverse abdominal cavity, with the aid of a digital caliper. […] The mean area (A), mass (M) and tumor burden (C) were calculated using the following equations, respectively: A=nπ2; L2×T=M/2 (where L is the measured longitudinal and transverse extent of the T waist circumference).

[10] = group pre and post treated with DM-1

## O=P1(N(CCCl)CCCl)NCCCO1 (centres unmarked) [Cyclophosphamide, cyclophosphamide]
[1]; bone marrow smears
  cells with micronuclei found in the group: more than 200 cells
[1]; DM-1 140 μM/Kg, 24 Hours
  Observed frequencies of polychromatic erythrocytes with micronuclei in 1000 polychromatic erythrocytes: 36.5 ± 1.0
[1]; DM-1 140 μM/Kg, 48 Hours
  Observed frequencies of polychromatic erythrocytes with micronuclei in 1000 polychromatic erythrocytes: 35.5 ± 1.0
[1]; positive control group
  frequency of micronucleated polychromatic erythrocytes in 1000 cells: 36 /1000

## COc1cc(C=CC(=O)C=Cc2ccc(O)c(OC)c2)ccc1[O-].[Na+] [DM-1, sodium 4-[5-(4-hydroxy-3-methoxy-phenyl)-3-oxo-penta-1,4-dienil]-2-methoxy-phenolate]
[2]
  platelet counts during treatment compared to the control group: significant reductions
[2]; mice treated with DM-1
  erythrocytes (anemia): does not induce anemia
[1]; DM-1 140 μM/Kg, 24 Hours
  Observed frequencies of polychromatic erythrocytes with micronuclei in 1000 polychromatic erythrocytes: 2.4 ± 0.5
[1]; DM-1 140 μM/Kg, 48 Hours
  Observed frequencies of polychromatic erythrocytes with micronuclei in 1000 polychromatic erythrocytes: 2.2 ± 0.5
[1]; DM-1 140 μM/Kg, alone or 8 hours before cyclophosphamide 190 μM/Kg
  micronuclei in bone marrow smears (in words): not found significant changes
B16F10 melanoma [3]; [10]
  formation of lung and liver metastases: inhibition
B16F10 melanoma [3]; group pre-treated with DM-1
  formation of lung and liver metastases: inhibition
B16F10 melanoma [4]; group pre- and post-treated with DM-1
  increase of survival rate: 30%
B16F10 melanoma [4]; group pre-treated with DM-1
  increase of survival rate: 50%
B16F10 melanoma [5]; pre and post treated with DM-1 0.83 nM/kg daily, 14 days before and 14 days after B16F10 implant
  dorsal tumor area, average values: 7.3±1.3 cm^2
B16F10 melanoma [5]; pretreated with DM-1 0.83 nM/kg daily for 14 days before B16F10 implant, no later treatment
  dorsal tumor area, average values: 6.5±1.7 cm^2
Tumor cell lines
  antiproliferative activity: significant
B16F10 melanoma cells; [10]
  percentage of cells in sub-G1 (apoptotic) phase: increased significantly
B16F10 melanoma cells; group pre-treated with DM-1
  percentage of cells in sub-G1 (apoptotic) phase: increased significantly
B16F10 melanoma cells; protocols of treatment with DM-1
  proportion of quiescent cells in G0/G1 phase: reduce
Ehrlich tumor [6]
  immunosuppression in animals with Ehrlich ascites tumor: suppressed

## C[C@@H](CN1CC(=O)NC(=O)C1)N1CC(=O)NC(=O)C1 [Dexrazoxane]
[7]; as co-adjuvant: dexrazoxane with etoposide, amifostine with cisplatin or paclitaxel
  rates of cell damage: > 45%

## O=S(=O)(O)CCS [Mesna]
[7]; in combination with paclitaxel
  antimutagenic action: moderate

## COc1cc([C@@H]2c3cc4c(cc3[C@@H](O[C@@H]3O[C@@H]5CO[C@@H](C)O[C@H]5[C@H](O)[C@H]3O)[C@H]3COC(=O)[C@H]23)OCO4)cc(OC)c1O [etoposide]
Ehrlich tumor [8]
  decrease of metastases in kidney: 10%
  decrease of metastases in spleen: 30%
Ehrlich tumor [9]
  median values of tumor area: 8.6±1.0 cm^2

## CC(=O)O[C@H]1C(=O)[C@@]2(C)[C@H]([C@H](OC(=O)c3ccccc3)[C@]3(O)C[C@H](OC(=O)[C@H](O)[C@@H](NC(=O)c4ccccc4)c4ccccc4)C(C)=C1C3(C)C)[C@]1(OC(C)=O)CO[C@@H]1C[C@@H]2O [paclitaxel, reference compound]
Ehrlich tumor [8]
  decrease of metastases in kidney: 30%
  decrease of metastases in spleen: 50%
[2]
  platelet counts during treatment compared to the control group: increase
B16F10 melanoma [4]; treated after tumor implantation
  increase of survival rate: no significant changes
B16F10 melanoma [5]; B16F10, treated after tumor implantation, paclitaxel 15 μM/Kg i.p., DM-1 0.83 nM/kg daily
  tumor area: 9.4 cm^2
Ehrlich tumor [9]
  median values of tumor area: 11.4±1 cm^2
B16F10 melanoma cells; compared to control and DM-1 groups
  proportion of cells killed by necrosis: significant increase
